# According to PubChem BioAssay (NCI):
#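 Protocol summary: plate cells (96-well), add compound at 5 concentrations, incubate 48 h, interpolate endpoints linearly. At the GI50, growth is halved. TGI: concentration producing complete growth inhibition.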
# Experiments:
# Assay in all cases: DTP human tumour cell line panel, 48 h
# TK-10 renal = tested on: TK-10 renal
# UACC-62 melanoma = tested on: UACC-62 melanoma
# BT-549 breast = tested on: BT-549 breast
# HCT-116 colon = tested on: HCT-116 colon
# MALME-3M melanoma = tested on: MALME-3M melanoma
# HCT-15 colon = tested on: HCT-15 colon
# EKVX NSCLC = tested on: EKVX NSCLC
# NCI-H226 lung = tested on: NCI-H226 lung
# SK-MEL-2 melanoma = tested on: SK-MEL-2 melanoma
# DU-145 prostate = tested on: DU-145 prostate
# SK-OV-3 ovarian = tested on: SK-OV-3 ovarian
# NCI-H522 lung = tested on: NCI-H522 lung
# SK-MEL-5 melanoma = tested on: SK-MEL-5 melanoma
# PC-3 prostate = tested on: PC-3 prostate
# MDA-MB-231 breast = tested on: MDA-MB-231 breast
# T-47D breast = tested on: T-47D breast
# RXF 393 renal = tested on: RXF 393 renal
# MCF7 breast = tested on: MCF7 breast
# A498 renal = tested on: A498 renal
# 786-0 renal = tested on: 786-0 renal
# OVCAR-4 ovarian = tested on: OVCAR-4 ovarian
# LOX IMVI melanoma = tested on: LOX IMVI melanoma
# SN12C renal = tested on: SN12C renal
# SF-539 CNS = tested on: SF-539 CNS
# KM12 colon = tested on: KM12 colon
# IGROV1 ovarian = tested on: IGROV1 ovarian
# MDA-MB-435 = tested on: MDA-MB-435
# RPMI-8226 leukemia = tested on: RPMI-8226 leukemia
# NCI-H23 lung = tested on: NCI-H23 lung
# SNB-75 CNS = tested on: SNB-75 CNS
# UACC-257 melanoma = tested on: UACC-257 melanoma
# OVCAR-5 ovarian = tested on: OVCAR-5 ovarian
# HOP-92 NSCLC = tested on: HOP-92 NSCLC
# OVCAR-8 ovarian = tested on: OVCAR-8 ovarian
# U251 CNS = tested on: U251 CNS
# NCI-H460 lung = tested on: NCI-H460 lung
# ACHN renal = tested on: ACHN renal
# NCI/ADR-RES ovarian = tested on: NCI/ADR-RES ovarian
# HL-60(TB) leukemia = tested on: HL-60(TB) leukemia
# HOP-62 NSCLC = tested on: HOP-62 NSCLC
# UO-31 renal = tested on: UO-31 renal
# SW-620 colon = tested on: SW-620 colon
# A549 NSCLC = tested on: A549 NSCLC
# HCC-2998 colon = tested on: HCC-2998 colon
# SK-MEL-28 melanoma = tested on: SK-MEL-28 melanoma
# HT29 colon = tested on: HT29 colon
# HS 578T breast = tested on: HS 578T breast
# SNB-19 CNS = tested on: SNB-19 CNS
# COLO 205 colon = tested on: COLO 205 colon
# SF-295 CNS = tested on: SF-295 CNS
# SF-268 CNS = tested on: SF-268 CNS
# OVCAR-3 ovarian = tested on: OVCAR-3 ovarian
# CCRF-CEM leukemia = tested on: CCRF-CEM leukemia
# M14 melanoma = tested on: M14 melanoma
structure (smiles),measurement,setting,value
CN(C)CCCn1c2c(c3ccc(-c4ccn[nH]4)cc3c1=O)C(=O)c1ccccc1-2,GI50,TK-10 renal,2.75 µM
same,TGI,TK-10 renal,18.8 µM
same,GI50,UACC-62 melanoma,0.718 µM
same,TGI,UACC-62 melanoma,18.9 µM
same,GI50,BT-549 breast,3.1 µM
same,TGI,BT-549 breast,21.1 µM
same,GI50,HCT-116 colon,0.391 µM
same,TGI,HCT-116 colon,2.23 µM
same,GI50,MALME-3M melanoma,0.931 µM
same,TGI,MALME-3M melanoma,2.47 µM
same,GI50,HCT-15 colon,0.0915 µM
same,TGI,HCT-15 colon,1.48 µM
same,GI50,EKVX NSCLC,2.91 µM
same,TGI,EKVX NSCLC,20.6 µM
same,GI50,NCI-H226 lung,0.273 µM
same,TGI,NCI-H226 lung,1.53 µM
same,GI50,SK-MEL-2 melanoma,18.2 µM
same,TGI,SK-MEL-2 melanoma,35.8 µM
same,GI50,DU-145 prostate,0.197 µM
same,TGI,DU-145 prostate,10.5 µM
same,GI50,SK-OV-3 ovarian,1.21 µM
same,TGI,SK-OV-3 ovarian,11.3 µM
same,GI50,NCI-H522 lung,0.836 µM
same,TGI,NCI-H522 lung,18 µM
same,GI50,SK-MEL-5 melanoma,0.481 µM
same,TGI,SK-MEL-5 melanoma,16.4 µM
same,GI50,PC-3 prostate,1.21 µM
same,TGI,PC-3 prostate,2.72 µM
same,GI50,MDA-MB-231 breast,1.27 µM
same,TGI,MDA-MB-231 breast,2.84 µM
same,GI50,T-47D breast,0.627 µM
same,TGI,T-47D breast,20.9 µM
same,GI50,RXF 393 renal,1.66 µM
same,TGI,RXF 393 renal,9.57 µM
same,GI50,MCF7 breast,0.0378 µM
same,TGI,MCF7 breast,1.54 µM
same,GI50,A498 renal,10.6 µM
same,TGI,A498 renal,30.9 µM
same,GI50,786-0 renal,0.218 µM
same,TGI,786-0 renal,1.82 µM
same,GI50,OVCAR-4 ovarian,1.45 µM
same,TGI,OVCAR-4 ovarian,4.06 µM
same,GI50,LOX IMVI melanoma,0.104 µM
same,TGI,LOX IMVI melanoma,1.46 µM
same,GI50,SN12C renal,0.249 µM
same,TGI,SN12C renal,10 µM
same,GI50,SF-539 CNS,1.04 µM
same,TGI,SF-539 CNS,6.29 µM
same,GI50,KM12 colon,0.527 µM
same,TGI,KM12 colon,2.08 µM
same,GI50,IGROV1 ovarian,0.583 µM
same,TGI,IGROV1 ovarian,2.51 µM
same,GI50,MDA-MB-435,10.3 µM
same,TGI,MDA-MB-435,23.7 µM
same,GI50,RPMI-8226 leukemia,0.115 µM
same,TGI,RPMI-8226 leukemia,1.39 µM
same,GI50,NCI-H23 lung,0.243 µM
same,TGI,NCI-H23 lung,1.83 µM
same,GI50,SNB-75 CNS,1.39 µM
same,TGI,SNB-75 CNS,17.3 µM
same,GI50,UACC-257 melanoma,12.3 µM
same,TGI,UACC-257 melanoma,29.1 µM
same,GI50,OVCAR-5 ovarian,1.51 µM
same,TGI,OVCAR-5 ovarian,5.47 µM
same,GI50,HOP-92 NSCLC,0.129 µM
same,TGI,HOP-92 NSCLC,10.9 µM
same,GI50,OVCAR-8 ovarian,0.163 µM
same,TGI,OVCAR-8 ovarian,2.27 µM
same,GI50,U251 CNS,0.183 µM
same,TGI,U251 CNS,1.57 µM
same,GI50,NCI-H460 lung,0.0363 µM
same,TGI,NCI-H460 lung,1.55 µM
same,GI50,ACHN renal,0.0948 µM
same,TGI,ACHN renal,1.93 µM
same,GI50,NCI/ADR-RES ovarian,1.48 µM
same,TGI,NCI/ADR-RES ovarian,4.76 µM
same,GI50,HL-60(TB) leukemia,0.0346 µM
same,TGI,HL-60(TB) leukemia,0.771 µM
same,GI50,HOP-62 NSCLC,0.181 µM
same,TGI,HOP-62 NSCLC,11.6 µM
same,GI50,UO-31 renal,0.301 µM
same,TGI,UO-31 renal,1.92 µM
same,GI50,SW-620 colon,0.204 µM
same,TGI,SW-620 colon,2.17 µM
same,GI50,A549 NSCLC,0.0578 µM
same,TGI,A549 NSCLC,1.42 µM
same,GI50,HCC-2998 colon,10 µM
same,TGI,HCC-2998 colon,24 µM
same,GI50,SK-MEL-28 melanoma,2.01 µM
same,TGI,SK-MEL-28 melanoma,5.65 µM
same,GI50,HT29 colon,0.344 µM
same,TGI,HT29 colon,1.99 µM
same,GI50,HS 578T breast,4.9 µM
same,TGI,HS 578T breast,27.1 µM
same,GI50,SNB-19 CNS,0.332 µM
same,TGI,SNB-19 CNS,1.82 µM
same,GI50,COLO 205 colon,4.92 µM
same,TGI,COLO 205 colon,23.7 µM
same,GI50,SF-295 CNS,0.354 µM
same,TGI,SF-295 CNS,13.6 µM
same,GI50,SF-268 CNS,1.85 µM
same,TGI,SF-268 CNS,15 µM
same,GI50,OVCAR-3 ovarian,6.09 µM
same,TGI,OVCAR-3 ovarian,21.5 µM
same,GI50,CCRF-CEM leukemia,0.0291 µM
same,TGI,CCRF-CEM leukemia,1.04 µM
same,GI50,M14 melanoma,1.65 µM
same,TGI,M14 melanoma,13.9 µM
